Patent US20140288090A1, “N-ARYLYLMETHYLINDAZOLE MODULATORS OF PPARG” (priority 2011, published 2014)
Where two headings read alike, the source gives them in different places.

Experiments:
[1] = test system: PPARG (murine PPARg2 or full-length human PPARg co-transfected into COS-1 cells); test: Cell-based transactivation assay (3x PPRE-luciferase reporter, COS-1 cells); conditions: PPRE::Luc reporter
Experimental: PPRE is a DNA that contains a binding site for PPARG; thus PPRE is a PPAR response element, used herein as a promoter reporter. The binding site is a DR1 response element with the sequence [NT] repeated 3 times in tandem and then fused to a construct for luciferase. Thus, PPRE is the basis of the cell based transactivation assay described below. The plasmid DNA is co-transfected along with a plasmid for PPARG into COS-1 cells. After an overnight incubation, cells are treated with DMSO or compounds. […] Transfected cells were plated in white Perkin Elmer 384-well plates and incubated 4 hours. […] After 18 hour incubation, treated cells were developed with Brite Lite Plus (Perkin Elmer) and read in 384-well Luminescence Perkin Elmer EnVision Multilabel plate reader. Graphs were plotted in triplicate in GraphPad Prism Software as fold change of treated cells over DMSO control cells.

[2] = biological target: T1, GST-PPARG-LBD (Homo sapiens, UniProt P37231); test: Lanthascreen PPARG competitive binding assay (Invitrogen)
T1 construct: A mixture of 5 nM GST-PPARG-LBD; purchased Invitrogen
T1 sequence (P37231 238-503 limits assumed): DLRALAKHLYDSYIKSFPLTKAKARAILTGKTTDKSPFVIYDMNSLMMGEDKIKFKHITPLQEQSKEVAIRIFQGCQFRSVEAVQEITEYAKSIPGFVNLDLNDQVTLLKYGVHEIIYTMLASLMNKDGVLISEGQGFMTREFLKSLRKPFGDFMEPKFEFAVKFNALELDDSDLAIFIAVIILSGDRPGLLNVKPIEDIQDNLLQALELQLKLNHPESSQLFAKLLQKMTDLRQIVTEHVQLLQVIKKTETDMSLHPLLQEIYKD
Experimental: The assay was performed according to manufacturer protocol. A mixture of 5 nM GST-PPARG-LBD, 5 nM Tb-GST-antibody, 5 nM Fluormone Pan-PPAR. Green, and serial dilutions of the experimental compound, beginning at 10 μM downwards, was added to wells of black 384-well low-volume plates (Greiner) to a total volume of 18 μL. All dilutions were made in TR-FRET assay buffer C. DMSO at 2% final concentration was used as a no-ligand control. Experiment was performed in triplicate, and incubated for 2 hours in the dark prior to assay read in Perkin Elmer ViewLux ultra HTS microplate reader. FRET signal was measured by excitation at […] and emission at 520 nm for fluorcscein and 490 nm for terbium. Fold change over DMSO was calculated using GraphPad Prism Software (La Jolla, Calif.) by calculating 520 nm/490 nm ratio. Graphs were plotted as fold change of FRET signal for compound treatment over DMSO-only control.

[3] = Table 3, Lantha 1, read-out: IC50 (nM) Lantha 1
[4] = Table 3, Lantha 2, read-out: IC50 (nM) Lantha 2

Row | IC50 [2, 3] [nM] | IC50 [2, 4] [nM] | SMILES | transactivation of the reporter relative to rosiglitazone response [1] | activation of the PPRE reporter [1]
1 |  |  | COc1ccc(C(=O)n2c(C)c(Cc3cccc(O[C@@H](C)C(=O)O)c3)c3cc(OC(F)(F)F)ccc32)cc1 [MRL24] | about 25 % of rosiglitazone response | 
2 | 11.5 | 870 | Cc1nn(Cc2ccc(-c3ccccc3C(=O)O)cc2)c2ccc(C(=O)NC3CCCC3)cc12 [compound 21] |  | 
3 | > 100 | 824 | COCCNC(=O)c1ccc2c(c1)c(C)nn2Cc1ccc(-c2ccccc2C(=O)O)cc1 [compound 22] |  | 
4 | 560 | 562 | Cc1nn(Cc2ccc(-c3ccccc3C(=O)O)cc2)c2ccc(C(=O)NC3CCCCC3)cc12 [compound 23] |  | 
5 | 204 | 176 | Cc1nn(Cc2ccc(-c3ccccc3C(=O)O)cc2)c2ccc(C(=O)NC3CCCCCC3)cc12 [compound 24] |  | 
6 | 255 | 82.8 | Cc1nn(Cc2ccc(-c3ccccc3C(=O)O)cc2)c2ccc(C(=O)NC3CCC(C)CC3)cc12 (centres unmarked) [compound 25] |  | 
7 | 23.4 | 94.8 | Cc1nn(Cc2ccc(-c3ccccc3C(=O)O)cc2)c2ccc(C(=O)N[C@@H](C)c3cccc(C(C)C)c3)cc12 [compound 26] |  | 
8 |  | 31.8 | Cc1ccc([C@H](C)NC(=O)c2ccc3c(c2)c(C)nn3Cc2ccc(-c3ccccc3C(=O)O)cc2)cc1 [compound 27] |  | 
9 |  | 0.579 | CCC(NC(=O)c1ccc2c(c1)c(C)nn2Cc1ccc(-c2ccccc2C(=O)O)cc1)c1ccccc1 (centres unmarked) [compound 28] |  | 
10 |  | 18.8 | Cc1nn(Cc2ccc(-c3ccccc3C(=O)O)cc2)c2ccc(C(=O)N[C@@H](C)c3cccc(C4CC4)c3)cc12 [compound 29] |  | 
11 |  | 21.6 | Cc1nn(Cc2ccc(-c3ccccc3C(=O)O)cc2)c2ccc(C(=O)N[C@H](C)C3CCCCC3)cc12 [compound 30] |  | 
12 |  | 41.7 | Cc1nn(Cc2ccc(-c3ccccc3C(=O)O)cc2)c2ccc(C(=O)N[C@@H](C)C3CCCCC3)cc12 [compound 31] |  | 
13 |  | 367 | COC[C@H](C)NC(=O)c1ccc2c(c1)c(C)nn2Cc1ccc(-c2ccccc2C(=O)O)cc1 [compound 32] |  | 
14 |  | 235 | Cc1nn(Cc2ccc(-c3ccccc3C(=O)O)cc2)c2ccc(C(=O)N[C@H]3COc4ccccc4C3)cc12 [compound 33] |  | 
15 |  | 147 | Cc1nn(Cc2ccc(-c3ccccc3C(=O)O)cc2)c2ccc(C(=O)N[C@@H]3COc4ccccc4C3)cc12 [compound 34] |  | 
16 | 76.3 | 84.1 | CCCCNC(=O)c1ccc2c(c1)c(C)nn2Cc1ccc(-c2ccccc2C(=O)O)cc1 [compound 35] |  | 
17 | 4420 | 344 | CCOCCNC(=O)c1ccc2c(c1)c(C)nn2Cc1ccc(-c2ccccc2C(=O)O)cc1 [compound 36] |  | 
18 | 1820 | 1740 | COCCCNC(=O)c1ccc2c(c1)c(C)nn2Cc1ccc(-c2ccccc2C(=O)O)cc1 [compound 37] |  | 
19 | 118 | 82.8 | Cc1nn(Cc2ccc(-c3ccccc3C(=O)O)cc2)c2ccc(C(=O)NCC3CCC(C)CC3)cc12 (centres unmarked) [compound 38] |  | 

Row | IC50 [2, 3] [nM] | IC50 [2, 4] [nM] | SMILES | transactivation of the reporter relative to rosiglitazone response [1] | activation of the PPRE reporter [1]
20 |  | 16.1 | Cc1nn(Cc2ccc(-c3ccccc3C(N)=O)cc2)c2ccc(C(=O)N[C@@H](C)c3ccc(Br)cc3)cc12 [compound 39] |  | 
21 | 40.8 | 37.7 | Cc1nn(Cc2ccc(-c3ccccc3C#N)cc2)c2ccc(C(=O)N[C@@H](C)c3ccc(Br)cc3)cc12 [compound 40] |  | 
22 |  | 2.6 | Cc1nn(Cc2ccc(-c3ccccc3-c3nnn[nH]3)cc2)c2ccc(C(=O)N[C@@H](C)c3ccc(Br)cc3)cc12 [compound 41] |  | 
23 | 9.83 | 2.8 | Cc1nn(Cc2ccc(-c3ccccc3C(=O)O)cc2)c2ccc(C(=O)N[C@@H](C)c3ccc(Br)cc3)cc12 [compound 42] |  | 
24 |  | 13 | CC[C@H](NC(=O)c1ccc2c(c1)c(C)nn2Cc1ccc(-c2ccccc2C(=O)O)cc1)c1ccccc1 [compound 43] |  | 
25 | 359 | 432 | COCCNC(=O)c1ccc2c(c1)c(C(C)C)nn2Cc1ccc(-c2ccccc2C(=O)O)cc1 [compound 46] |  | 
26 | 1.85 | 0.681 | CCC(NC(=O)c1ccc2c(c1)c(C(C)C)nn2Cc1ccc(-c2ccccc2C(=O)O)cc1)c1ccccc1 (centres unmarked) [compound 47] |  | 
27 | 133 | 259 | CC(C)c1nn(Cc2ccc(-c3ccccc3C(=O)O)cc2)c2ccc(C(=O)NC3CCCC3)cc12 [compound 48] |  | 
28 |  | 0.119 | CC[C@H](NC(=O)c1ccc2c(c1)c(C(C)C)nn2Cc1ccc(-c2ccccc2C(=O)O)cc1)c1ccc(Br)cc1 [compound 49] |  | 
29 | 19.9 | 15.2 | CC(C)c1nn(Cc2ccc(-c3ccccc3C(=O)O)cc2)c2ccc(C(=O)N[C@@H](C)c3ccc(Br)cc3)cc12 [compound 50] |  | 
30 | 120 | 166 | C=C(C)c1nn(Cc2ccc(-c3ccccc3C(=O)O)cc2)c2ccc(C(=O)NCCOC)cc12 [compound 51] |  | 
31 | 713 | 932 | Cc1nn(Cc2ccccc2)c2ccc(C(=O)N[C@@H](C)c3ccc(Br)cc3)cc12 [compound 52] |  | 
32 |  | 1050 | Cc1nn(Cc2ccc(Cl)cc2)c2ccc(C(=O)N[C@@H](C)c3ccc(Br)cc3)cc12 [compound 53] |  | 
33 |  | 21.6 | Cc1nn(Cc2cccc(O[C@H](C)C(=O)O)c2)c2ccc(C(=O)N[C@@H](C)c3ccc(Br)cc3)cc12 [compound 54] |  | 
34 |  | 32.2 | Cc1nn(Cc2ccccc2C#N)c2ccc(C(=O)N[C@@H](C)c3ccc(Br)cc3)cc12 [compound 55] |  | 
35 |  | 144 | Cc1nn(Cc2ccc(C3(C(=O)O)CC3)cc2)c2ccc(C(=O)N[C@@H](C)c3ccc(Br)cc3)cc12 [compound 56] |  | 
36 |  | 877 | Cc1nn(Cc2ccccn2)c2ccc(C(=O)N[C@@H](C)c3ccc(Br)cc3)cc12 [compound 57] |  | 
37 |  | 4770 | COCCNC(=O)c1ccc2c(c1)c(C)nn2Cc1cccc(C#N)c1 [compound 58] |  | 
38 |  |  | CN(CCOc1ccc(CC2SC(=O)NC2=O)cc1)c1ccccn1 (centres unmarked) [rosiglitazone] |  | about 5 fold
